Reference: US20080194701A1, “Bifunctional Enzyme with Y-Glutamylcysteine Synthetase and Glutathione Synthetase Activity and Uses Thereof” (priority 2004, published 2008)

Key:
Human γ-GCS = target: T1, Human γ-GCS (Homo sapiens, UniProt P48506); settings: cited from earlier work
T1 sequence (P48506 1-637): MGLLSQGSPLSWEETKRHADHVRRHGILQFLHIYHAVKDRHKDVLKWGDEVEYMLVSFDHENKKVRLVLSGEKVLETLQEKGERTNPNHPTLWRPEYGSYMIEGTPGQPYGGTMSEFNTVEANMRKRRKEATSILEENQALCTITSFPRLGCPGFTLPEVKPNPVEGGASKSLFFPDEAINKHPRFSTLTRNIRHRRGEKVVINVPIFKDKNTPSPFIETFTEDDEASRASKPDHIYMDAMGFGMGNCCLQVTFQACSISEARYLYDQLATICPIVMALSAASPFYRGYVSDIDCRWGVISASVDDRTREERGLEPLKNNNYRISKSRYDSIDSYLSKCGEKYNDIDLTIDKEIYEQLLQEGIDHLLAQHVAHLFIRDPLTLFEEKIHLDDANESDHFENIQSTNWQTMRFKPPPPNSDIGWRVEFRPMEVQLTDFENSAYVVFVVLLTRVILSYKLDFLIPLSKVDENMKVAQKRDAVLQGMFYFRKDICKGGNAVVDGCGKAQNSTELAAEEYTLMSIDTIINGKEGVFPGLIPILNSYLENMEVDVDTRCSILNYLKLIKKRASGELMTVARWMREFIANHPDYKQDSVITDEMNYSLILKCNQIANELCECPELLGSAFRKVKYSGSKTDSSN
T1 sequence (P48507 1-274 partner): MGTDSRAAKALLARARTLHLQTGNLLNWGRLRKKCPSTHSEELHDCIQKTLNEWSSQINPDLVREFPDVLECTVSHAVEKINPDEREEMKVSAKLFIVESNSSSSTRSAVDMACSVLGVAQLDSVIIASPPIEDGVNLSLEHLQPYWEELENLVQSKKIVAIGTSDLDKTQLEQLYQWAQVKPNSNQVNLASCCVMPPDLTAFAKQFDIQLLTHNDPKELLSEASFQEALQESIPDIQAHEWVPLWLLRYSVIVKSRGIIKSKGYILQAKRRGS

Rat GS = target: T2, Rat GS (Rattus norvegicus, UniProt P46413); settings: cited from earlier work
T2 sequence (P46413 1-474): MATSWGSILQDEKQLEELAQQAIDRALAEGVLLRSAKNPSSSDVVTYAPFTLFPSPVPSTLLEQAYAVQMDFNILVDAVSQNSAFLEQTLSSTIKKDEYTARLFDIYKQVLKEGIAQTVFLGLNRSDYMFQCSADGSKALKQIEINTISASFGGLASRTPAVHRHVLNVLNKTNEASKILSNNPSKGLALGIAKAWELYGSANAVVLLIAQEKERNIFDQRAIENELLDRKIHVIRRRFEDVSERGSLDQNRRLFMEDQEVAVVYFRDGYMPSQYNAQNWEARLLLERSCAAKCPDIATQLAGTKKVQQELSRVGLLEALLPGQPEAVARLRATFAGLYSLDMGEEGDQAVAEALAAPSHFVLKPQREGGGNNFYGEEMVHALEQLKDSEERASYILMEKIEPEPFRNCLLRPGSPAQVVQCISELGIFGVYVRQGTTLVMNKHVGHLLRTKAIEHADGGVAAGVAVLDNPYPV

E. coli GS = E. coli GS (Escherichia coli, UniProt P04425); settings: cited from earlier work
S. mutans γ-GCS-GS = S. mutans γ-GCS-GS (Streptococcus mutans serotype c, UniProt Q8DW15); assay: γ-GCS activity of S. mutans γ-GCS-GS; settings: substrate Km, γ-GCS activity
Excerpt: 3′ and 5′ […] 3′ and introduced unique Bgl II and Hind III sites (underlined), respectively.

S. agalactiae γ-GCS-GS = target: T3, S. agalactiae γ-GCS-GS (Streptococcus agalactiae serotype V, UniProt Q8DXM9); assay: γ-GCS activity assay based on ADP formation, S. agalactiae γ-GCS-GS; type: biochemical; parameters: corresponded to full-length S. agalactiae γ-GCS-GS with an N-terminal His8-tag; made in house; host or cells: E. coli SG13009 with pQE30-gshAB plus pREP4 or pRARE; settings: γ-GCS activity
T3 sequence (Q8DXM9 1-750): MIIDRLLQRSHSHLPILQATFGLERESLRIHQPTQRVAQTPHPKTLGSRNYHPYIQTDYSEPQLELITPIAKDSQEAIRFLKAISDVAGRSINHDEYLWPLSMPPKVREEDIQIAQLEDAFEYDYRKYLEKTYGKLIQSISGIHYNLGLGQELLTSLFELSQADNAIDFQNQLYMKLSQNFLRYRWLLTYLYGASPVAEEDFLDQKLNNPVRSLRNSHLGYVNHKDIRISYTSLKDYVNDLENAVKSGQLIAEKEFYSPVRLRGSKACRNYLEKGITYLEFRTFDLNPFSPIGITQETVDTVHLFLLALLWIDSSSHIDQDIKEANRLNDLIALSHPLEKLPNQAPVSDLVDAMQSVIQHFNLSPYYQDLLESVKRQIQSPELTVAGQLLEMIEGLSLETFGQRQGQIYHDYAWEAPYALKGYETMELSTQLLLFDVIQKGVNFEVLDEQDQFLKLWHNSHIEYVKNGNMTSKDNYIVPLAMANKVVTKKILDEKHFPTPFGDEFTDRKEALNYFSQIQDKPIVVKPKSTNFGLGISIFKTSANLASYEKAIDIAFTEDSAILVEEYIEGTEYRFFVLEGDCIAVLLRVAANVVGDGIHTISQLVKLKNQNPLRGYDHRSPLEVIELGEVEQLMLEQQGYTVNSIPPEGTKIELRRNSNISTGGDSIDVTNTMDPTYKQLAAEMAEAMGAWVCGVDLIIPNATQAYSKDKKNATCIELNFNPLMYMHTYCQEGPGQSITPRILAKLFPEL
Procedure: In Table 1, a unit was defined as the amount of enzyme activity required to catalyze the formation of 1 μmol of product per hour. Specific activity was shown as units per mg protein. Activity was determined at 37° C. based on ADP formation in reaction mixtures containing L-glutamate and L-cysteine and using pyruvate kinase and lactate dehydrogenase to couple ADP formation to NADH oxidation, which was monitored at 340 nm.
Exp. Purif. 13, 268-276 (1998).
At set time points ranging from one to 30 minutes, 5 μl aliquots were removed and assayed for residual enzyme activity using the standard γ-GCS assay based on ADP formation.

Chain of E. coli GS (P04425 whole entry): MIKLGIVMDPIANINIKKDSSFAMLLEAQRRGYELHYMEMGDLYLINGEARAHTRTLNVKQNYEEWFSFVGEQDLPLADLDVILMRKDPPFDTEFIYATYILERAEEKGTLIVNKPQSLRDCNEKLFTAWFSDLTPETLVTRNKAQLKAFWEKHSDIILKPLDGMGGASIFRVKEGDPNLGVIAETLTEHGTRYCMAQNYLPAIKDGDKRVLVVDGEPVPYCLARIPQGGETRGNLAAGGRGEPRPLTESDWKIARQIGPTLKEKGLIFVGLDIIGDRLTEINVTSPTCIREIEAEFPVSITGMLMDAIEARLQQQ
Chain of S. mutans γ-GCS-GS (Q8DW15 whole entry): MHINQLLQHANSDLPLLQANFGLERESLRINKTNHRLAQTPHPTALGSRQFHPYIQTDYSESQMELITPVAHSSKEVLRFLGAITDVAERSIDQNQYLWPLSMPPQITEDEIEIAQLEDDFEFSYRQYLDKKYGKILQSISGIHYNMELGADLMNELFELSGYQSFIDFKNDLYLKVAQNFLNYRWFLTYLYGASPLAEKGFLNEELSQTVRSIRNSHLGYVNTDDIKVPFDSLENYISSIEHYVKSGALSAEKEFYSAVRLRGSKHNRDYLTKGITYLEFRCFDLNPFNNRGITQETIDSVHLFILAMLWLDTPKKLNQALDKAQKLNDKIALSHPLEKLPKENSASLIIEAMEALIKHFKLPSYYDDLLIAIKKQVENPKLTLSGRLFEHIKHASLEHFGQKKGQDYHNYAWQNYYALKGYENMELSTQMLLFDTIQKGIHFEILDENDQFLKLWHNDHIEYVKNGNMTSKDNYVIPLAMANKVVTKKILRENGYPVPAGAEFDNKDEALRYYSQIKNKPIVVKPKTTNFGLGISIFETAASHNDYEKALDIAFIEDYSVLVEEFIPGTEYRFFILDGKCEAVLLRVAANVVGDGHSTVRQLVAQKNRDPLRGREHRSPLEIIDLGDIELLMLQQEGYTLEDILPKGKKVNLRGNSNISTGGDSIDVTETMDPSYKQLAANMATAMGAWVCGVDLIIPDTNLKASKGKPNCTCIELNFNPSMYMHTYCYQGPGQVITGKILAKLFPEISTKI

Nc1ncnc2c1ncn2[C@@H]1O[C@H](COP(=O)(O)OP(=O)(O)OP(=O)(O)O)[C@@H](O)[C@H]1O [ATP]
Km (Human γ-GCS; substrate Km): 400 ± 40 µM
Vmax (Human γ-GCS; unit = 1 μmol product per hour): ~1500 units/mg
Vmax (Rat GS): 678 units/mg
Km (Rat GS; substrate Km): 37 µM
Vmax (E. coli GS): 650 units/mg
Km (E. coli GS; substrate Km): 1.8 mM
Km (S. mutans γ-GCS-GS): 288 ± 105 µM
Km (S. agalactiae γ-GCS-GS; substrate Km): 66 ± 9 µM
Vmax (S. agalactiae γ-GCS-GS; unit = 1 μmol product per hour): 1332 ± 120 units/mg
